± gives the expanded uncertainty stated by the source.
What was measured:
[1] = Molar enthalpy of transition or fusion; settings: Crystal; DSC
[2] = Crystal; DSC

## CC[C@@H](C(N)=O)N1CCCC1=O [(S)-2-(2-oxopyrrolidin-1-yl)butanamide]
[1]
  Molar enthalpy of transition or fusion: 7.07 ± 0.239 kcal/mol
[2]
  Triple point temperature: 389.85 ± 1.2 K

— the NIST ThermoML archive (doi:10.1021/acs.jced.8b00720)
